Reference: US10227346B2, “Methyl- and trifluoromethyl-substituted pyrrolopyridine modulators of RORC2 and methods of use therof” (Pfizer Inc., priority 2014, dated 2019)
pIC50: −log10 of the molar value.

system: IL-17 production from human Th17 cells; assay: IL-17 production from human Th17 cells; assay type: cell-based; conditions: IL-17A in supernatant by ELISA after 6 days, human CD4+ T cells under Th17 differentiation;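 note: purified human CD4+ T cells activated with anti-CD3 plus anti-CD28 and a Th17-inducing cytokine cocktail, with compound at serial concentrations versus no compound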

**Q.** With `CC(C(=O)N1CCC(c2cn(C)c3ncc(NC(=O)c4cccc(C#N)c4)c(C(F)(F)F)c23)CC1)C1CC1` (racemic) [Example 25, Rac-3-cyano-N-(3-(1-(2-cyclopropylpropanoyl)piperidin-4-yl)-1-methyl-4-(trifluoromethyl)-1H-pyrrolo[2,3-b]pyridin-5-yl)benzamide] as the compound, how does the pIC50 read?
**A.** 7.85

**Q.** With `Cc1c(NC(=O)c2cccc(C#N)c2)cnc2c1c([C@H]1C[C@H](C)N(C(=O)C3CCCC3)C[C@H]1C)cn2C` (relative stereo) [Example 97, rel-3-cyano-N-(3-((2S,4S,5S)-1-(cyclopentanecarbonyl)-2,5-dimethylpiperidin-4-yl)-1,4-dimethyl-1H-pyrrolo[2,3-b]pyridin-5-yl)benzamide] as the compound, how does the pIC50 read?
**A.** 6.91

**Q.** With `Cn1cc(C2CCN(C(=O)[C@H]3CCCS3)CC2)c2c(C(F)(F)F)c(NC(=O)c3cccc(C#N)c3)cnc21` (single isomer, unassigned) [Example 28] as the compound, how does the pIC50 read?
**A.** 6.93

**Q.** With `Cn1cc(C2CCN(C(=O)[C@@H]3CCCS3)CC2)c2c(C(F)(F)F)c(NC(=O)c3cccc(C#N)c3)cnc21` (single isomer, unassigned) [Example 29] as the compound, how does the pIC50 read?
**A.** 8.07

**Q.** `Cc1c(NC(=O)c2cccc(C#N)c2)cnc2c1c(C1CCN(C(=O)[C@H]3CCC[C@@H]3C)CC1)cn2C` (single isomer, unassigned) [Example 46] was tested. Which pIC50 did it give?
**A.** 7.24

**Q.** With `Cc1c(NC(=O)c2cccc(C#N)c2)cnc2c1c(C1CCN(C(=O)[C@@H]3CCC[C@H]3C)CC1)cn2C` (single isomer, unassigned) [Example 47] as the compound, how does the pIC50 read?
**A.** 8.08

**Q.** With `Cc1c(NC(=O)c2cccc(C#N)c2)cnc2c1c(C1CCN(C(=O)[C@@H]3CCC[C@@H]3C(C)C)CC1)cn2C` (single isomer, unassigned) [Example 48] as the compound, how does the pIC50 read?
**A.** 7.87

**Q.** With `Cc1c(NC(=O)c2cccc(C#N)c2)cnc2c1c(C1CCN(C(=O)[C@@H]3CCCC3C(C)C)CC1)cn2C` (stereo in doubt) [Example 49, 3-cyano-N-(3-(1-((1R,2R)-2-isopropylcyclopentane-1-carbonyl)piperidin-4-yl)-1,4-dimethyl-1H-pyrrolo[2,3-b]pyridin-5-yl)benzamide] as the compound, how does the pIC50 read?
**A.** 8.10

**Q.** With `Cn1cc(C2CCN(C(=O)C3CCCC3)CC2)c2c(C(F)(F)F)c(NC(=O)c3ccc(F)c(C#N)c3)cnc21` [Example 3, 3-cyano-N-(3-(1-(cyclopentanecarbonyl)piperidin-4-yl)-1-methyl-4-(trifluoromethyl)-1H-pyrrolo[2,3-b]pyridin-5-yl)-4-fluorobenzamide] as the compound, how does the pIC50 read?
**A.** 7.41

**Q.** How did the pIC50 turn out when `CC(C)C(=O)N1CCC(c2cn(C)c3ncc(NC(=O)c4cccc(C#N)c4)c(C(F)(F)F)c23)CC1` [Example 5, 3-cyano-N-(3-(1-isobutyrylpiperidin-4-yl)-1-methyl-4-(trifluoromethyl)-1H-pyrrolo[2,3-b]pyridin-5-yl)benzamide] was run?
**A.** 8.02

**Q.** `CC(C)C(=O)N1CCC(c2cn(C)c3ncc(NC(=O)c4ccc(F)c(C#N)c4)c(C(F)(F)F)c23)CC1` [Example 9, 3-cyano-4-fluoro-N-(3-(1-isobutyrylpiperidin-4-yl)-1-methyl-4-(trifluoromethyl)-1H-pyrrolo[2,3-b]pyridin-5-yl)benzamide] was tested. Which pIC50 did it give?
**A.** 7.56

**Q.** How did the pIC50 turn out when `COc1ccc(C(=O)Nc2cnc3c(c(C4CCN(C(=O)C(C)C)CC4)cn3C)c2C(F)(F)F)cc1Cl` [Example 10, 3-chloro-N-(3-(1-isobutyrylpiperidin-4-yl)-1-methyl-4-(trifluoromethyl)-1H-pyrrolo[2,3-b]pyridin-5-yl)-4-methoxybenzamide] was run?
**A.** 7.29

**Q.** `CC(C)C(=O)N1CCC(c2cn(C)c3ncc(NC(=O)c4ccc(Cl)c(C#N)c4)c(C(F)(F)F)c23)CC1` [Example 11, 4-chloro-3-cyano-N-(3-(1-isobutyrylpiperidin-4-yl)-1-methyl-4-(trifluoromethyl)-1H-pyrrolo[2,3-b]pyridin-5-yl)benzamide] was tested. Which pIC50 did it give?
**A.** 8.11

**Q.** With `CC(C)C(=O)N1CCC(c2cn(C)c3ncc(NC(=O)c4ccc(F)c(Cl)c4)c(C(F)(F)F)c23)CC1` [Example 12, 3-chloro-4-fluoro-N-(3-(1-isobutyrylpiperidin-4-yl)-1-methyl-4-(trifluoromethyl)-1H-pyrrolo[2,3-b]pyridin-5-yl)benzamide] as the compound, how does the pIC50 read?
**A.** 7.24

**Q.** `COc1cc(Cl)cc(C(=O)Nc2cnc3c(c(C4CCN(C(=O)C(C)C)CC4)cn3C)c2C(F)(F)F)c1` [Example 13, 3-chloro-N-(3-(1-isobutyrylpiperidin-4-yl)-1-methyl-4-(trifluoromethyl)-1H-pyrrolo[2,3-b]pyridin-5-yl)-5-methoxybenzamide] was tested. Which pIC50 did it give?
**A.** 7.31

**Q.** How did the pIC50 turn out when `Cn1cc(C2CCN(C(=O)[C@H]3C[C@H]4CCCC[C@H]4C3)CC2)c2c(C(F)(F)F)c(NC(=O)c3cccc(C#N)c3)cnc21` [Example 16, 3-cyano-N-(1-methyl-3-(1-((2r,3aR,7aS)-octahydro-1H-indene-2-carbonyl)piperidin-4-yl)-4-(trifluoromethyl)-1H-pyrrolo[2,3-b]pyridin-5-yl)benzamide] was run?
**A.** 7.97

**Q.** `Cn1cc(C2CCN(C(=O)CC3CCC3)CC2)c2c(C(F)(F)F)c(NC(=O)c3cccc(C#N)c3)cnc21` [Example 18, 3-cyano-N-(3-(1-(2-cyclobutylacetyl)piperidin-4-yl)-1-methyl-4-(trifluoromethyl)-1H-pyrrolo[2,3-b]pyridin-5-yl)benzamide] was tested. Which pIC50 did it give?
**A.** 7.97

**Q.** With `Cn1cc(C2CCN(C(=O)CC3CCCCC3)CC2)c2c(C(F)(F)F)c(NC(=O)c3cccc(C#N)c3)cnc21` [Example 20, 3-cyano-N-(3-(1-(2-cyclohexylacetyl)piperidin-4-yl)-1-methyl-4-(trifluoromethyl)-1H-pyrrolo[2,3-b]pyridin-5-yl)benzamide] as the compound, how does the pIC50 read?
**A.** 7.73

**Q.** `Cn1cc(C2CCN(C(=O)CC3CC3)CC2)c2c(C(F)(F)F)c(NC(=O)c3cccc(C#N)c3)cnc21` [Example 24, 3-cyano-N-(3-(1-(2-cyclopropylacetyl)piperidin-4-yl)-1-methyl-4-(trifluoromethyl)-1H-pyrrolo[2,3-b]pyridin-5-yl)benzamide] was tested. Which pIC50 did it give?
**A.** 7.76

**Q.** With `Cc1cccc(F)c1C(=O)N1CCC(c2cn(C)c3ncc(NC(=O)c4cccc(C#N)c4)c(C)c23)CC1` [Example 33, 3-cyano-N-(3-(1-(2-fluoro-6-methylbenzoyl)piperidin-4-yl)-1,4-dimethyl-1H-pyrrolo[2,3-b]pyridin-5-yl)benzamide] as the compound, how does the pIC50 read?
**A.** 7.86

**Q.** How did the pIC50 turn out when `Cc1c(NC(=O)c2cccc(C#N)c2)cnc2c1c(C1CCN(C(=O)c3cccc4c3CCC4)CC1)cn2C` [Example 34, 3-cyano-N-(3-(1-(2,3-dihydro-1H-indene-4-carbonyl)piperidin-4-yl)-1,4-dimethyl-1H-pyrrolo[2,3-b]pyridin-5-yl)benzamide] was run?
**A.** 8.02

**Q.** `Cc1c(NC(=O)c2cccc(C#N)c2)cnc2c1c(C1CCN(C(=O)[C@H](C)C(C)C)CC1)cn2C` [Example 37, (R)-3-cyano-N-(3-(1-(2,3-dimethylbutanoyl)piperidin-4-yl)-1,4-dimethyl-1H-pyrrolo[2,3-b]pyridin-5-yl)benzamide] was tested. Which pIC50 did it give?
**A.** 8.04

**Q.** How did the pIC50 turn out when `Cc1c(NC(=O)c2cc(Cl)ccc2F)cnc2c1c(C1CCN(C(=O)[C@H](C)C(C)(C)C)CC1)cn2C` [Example 41, (R)-5-chloro-N-(1,4-dimethyl-3-(1-(2,3,3-trimethylbutanoyl)piperidin-4-yl)-1H-pyrrolo[2,3-b]pyridin-5-yl)-2-fluorobenzamide] was run?
**A.** 7.72

**Q.** With `COc1cc(Cl)cc(C(=O)Nc2cnc3c(c(C4CCN(C(=O)[C@H](C)C(C)(C)C)CC4)cn3C)c2C)c1` [Example 42, (R)-3-chloro-N-(1,4-dimethyl-3-(1-(2,3,3-trimethylbutanoyl)piperidin-4-yl)-1H-pyrrolo[2,3-b]pyridin-5-yl)-5-methoxybenzamide] as the compound, how does the pIC50 read?
**A.** 7.50

**Q.** How did the pIC50 turn out when `Cc1c(NC(=O)c2cccc(C#N)c2)cnc2c1c(C1CCN(C(=O)[C@H](C)C34CC(C3)C4)CC1)cn2C` [Example 50, (R)—N-(3-(1-(2-(bicyclo[1.1.1]pentan-1-yl)propanoyl)piperidin-4-yl)-1,4-dimethyl-1H-pyrrolo[2,3-b]pyridin-5-yl)-3-cyanobenzamide] was run?
**A.** 8.47

**Q.** How did the pIC50 turn out when `Cc1c(NC(=O)c2cccc(C#N)c2)cnc2c1c(C1CCN(C(=O)[C@H](C)C3CCCC3)CC1)cn2C` [Example 51, (R)-3-cyano-N-(3-(1-(2-cyclopentylpropanoyl)piperidin-4-yl)-1,4-dimethyl-1H-pyrrolo[2,3-b]pyridin-5-yl)benzamide] was run?
**A.** 8.19

**Q.** `C[C@@H](C(=O)N1CCC(c2cn(C)c3ncc(NC(=O)c4cc(O)cc(C#N)c4)c(C(F)(F)F)c23)CC1)C(C)(C)C` [Example 54, (R)-3-cyano-5-hydroxy-N-(1-methyl-4-(trifluoromethyl)-3-(1-(2,3,3-trimethylbutanoyl)piperidin-4-yl)-1H-pyrrolo [2,3-b]pyridin-5-yl)benzamide] was tested. Which pIC50 did it give?
**A.** 8.30

**Q.** `Cn1cc(C2CCN(C(=O)C3CCCC3)CC2)c2c(C(F)(F)F)c(NC(=O)c3cc(O)cc(C#N)c3)cnc21` [Example 55, 3-cyano-N-(3-(1-(cyclopentanecarbonyl)piperidin-4-yl)-1-methyl-4-(trifluoromethyl)-1H-pyrrolo[2,3-b]pyridin-5-yl)-5-hydroxybenzamide] was tested. Which pIC50 did it give?
**A.** 8.22

**Q.** `Cc1c(NC(=O)c2cc(O)cc(C#N)c2)cnc2c1c(C1CCN(C(=O)[C@H](C)C(C)(C)C)CC1)cn2C` [Example 56, (R)-3-cyano-N-(1,4-dimethyl-3-(1-(2,3,3-trimethylbutanoyl)piperidin-4-yl)-1H-pyrrolo[2,3-b]pyridin-5-yl)-5-hydroxybenzamide] was tested. Which pIC50 did it give?
**A.** 8.31

**Q.** How did the pIC50 turn out when `Cc1ccc(C(=O)Nc2cnc3c(c([C@@H]4CCN(C(=O)C5CCCC5)C(C)(C)C4)cn3C)c2C)cc1C#N` [Example 59, (R)-3-cyano-N-(3-(1-(cyclopentanecarbonyl)-2,2-dimethylpiperidin-4-yl)-1,4-dimethyl-1H-pyrrolo[2,3-b]pyridin-5-yl)-4-methylbenzamide] was run?
**A.** 8.00

**Q.** How did the pIC50 turn out when `Cc1c(NC(=O)c2ccc(F)c(C#N)c2)cnc2c1c([C@@H]1CCN(C(=O)C3CCCC3)C(C)(C)C1)cn2C` [Example 61, (R)-3-cyano-N-(3-(1-(cyclopentanecarbonyl)-2,2-dimethylpiperidin-4-yl)-1,4-dimethyl-1H-pyrrolo[2,3-b]pyridin-5-yl)-4-fluorobenzamide] was run?
**A.** 7.59

**Q.** `COc1cc(Cl)cc(C(=O)Nc2cnc3c(c([C@@H]4CCN(C(=O)C(C)C)C(C)(C)C4)cn3C)c2C)c1` [Example 62, (R)-3-chloro-N-(3-(1-isobutyryl-2,2-dimethylpiperidin-4-yl)-1,4-dimethyl-1H-pyrrolo[2,3-b]pyridin-5-yl)-5-methoxybenzamide] was tested. Which pIC50 did it give?
**A.** 7.80
